Active and inactive are the calls of the source. No cut-off for these calls is given here.
What was measured:
[1] = system: Chikungunya virus; assay: Antiviral activity against CHIKV-nLuc RNA transfected NHDF cells assessed as decrease in Nano-luc signal at 20 uM pretreated 24 hrs before transfection in presence of uridine measured after 24 hrs by Nano-Glo luciferase assay; type: functional, organism-based; details: time 48.0 hrs
[2] = system: Chikungunya virus; assay: Antiviral activity against resistance mutation induced CHIKV-119 infected in […] cells assessed as viral infectivity in Vero cells at 10 uM measured up to 24 hrs of post infection by supernatant was quantified by plaque assay; type: functional, organism-based; details: time hrs <=24
[3] = system: Venezuelan equine encephalitis virus; assay: Antiviral activity against Venezuelan equine encephalitis virus TC83 infected in Asian tiger mosquito C6/36 cells assessed as reduction in virus titer in cell supernatant by measuring inhibition of plaque formation using Vero cells and measured following infection of supernatants with Vero cells for 48 hrs pi by serial dilution plaque based methylene blue dye analysis; type: functional
[4] = system: Mayaro virus; assay: Antiviral activity against Mayaro virus TRVL infected in Asian tiger mosquito C6/36 cells assessed as reduction in virus titer in cell supernatant by measuring inhibition of plaque formation using Vero cells and measured following infection of supernatants with Vero cells for 48 hrs pi by serial dilution plaque based methylene blue dye analysis; type: functional
[5] = system: Chikungunya virus; assay: Antiviral activity against CHIKV 99659 infected in Asian tiger mosquito C6/36 cells assessed as reduction in virus titer in cell supernatant by measuring inhibition of plaque formation using Vero cells and measured following infection of supernatants with Vero cells for 48 hrs pi by serial dilution plaque based methylene blue dye analysis; type: functional; details: Chikungunya virus, 99659, C6
[6] = system: Chikungunya virus; type: functional; details: 181-25, C6, time 48 hrs
[7] = system: Chikungunya virus; assay: Antiviral activity against CHIKV-nLuc RNA transfected NHDF cells assessed as decrease in Nano-luc signal at 20 uM pretreated 24 hrs before transfection in presence of guanosine measured after 24 hrs by Nano-Glo luciferase assay; type: functional, organism-based
[8] = system: Chikungunya virus; type: functional, organism-based; details: 181-25, NHDF, dose 20.0 µM, time 13.0 hrs
[9] = system: Chikungunya virus; assay: Antiviral activity against CHIKV infected in human NHDF cells assessed as reduction in virus titer in cell supernatant by measuring inhibition of plaque formation using Vero cells at 10 uM pretreated with NHDF cells followed by infected with virus incubated for 24 hrs and measured following infection of supernatants with Vero cells for 48 hrs by plaque based methylene blue dye analysis; type: functional; details: time 72 hrs
[10] = system: Chikungunya virus; assay: Antiviral activity against CHIKV LR2006-OPY1 infected in Asian tiger mosquito C6/36 cells assessed as reduction in virus titer in cell supernatant by measuring inhibition of plaque formation using Vero cells and measured following infection of supernatants with Vero cells for 48 hrs pi by serial dilution plaque based methylene blue dye analysis; type: functional
[11] = system: Chikungunya virus; assay: Antiviral activity against resistance mutation induced CHIKV-117/119 infected in […] cells assessed as viral infectivity in Vero cells at 10 uM measured up to 24 hrs of post infection by supernatant was quantified by plaque assay; type: functional, organism-based; details: time hrs <=24
[12] = system: Onyong-nyong virus; assay: Antiviral activity against O'nyong-nyong virus infected in Asian tiger mosquito C6/36 cells assessed as reduction in virus titer in cell supernatant by measuring inhibition of plaque formation using Vero cells and measured following infection of supernatants with Vero cells for 48 hrs pi by serial dilution plaque based methylene blue dye analysis; type: functional
[13] = system: Chikungunya virus; type: functional, organism-based; details: 181-25, NHDF, dose 20.0 µM, time 13.0 hrs; remark: listed apart in the source
[14] = Antiviral activity against Ross river virus infected in Asian tiger mosquito C6/36 cells assessed as reduction in virus titer in cell supernatant by measuring inhibition of plaque formation using Vero cells and measured following infection of supernatants with Vero cells for 48 hrs pi by serial dilution plaque based methylene blue dye analysis; type: functional
[15] = system: Chikungunya virus; assay: Antiviral activity against CHIKV infected in human NHDF cells assessed as reduction in virus titer in cell supernatant by measuring inhibition of plaque formation using Vero cells pretreated with NHDF cells followed by infected with virus incubated for 24 hrs and measured following infection of supernatants with Vero cells for 48 hrs by plaque based methylene blue dye analysis; type: functional, organism-based
[16] = system: Chikungunya virus; assay: Antiviral activity against CHIKV infected in IFN regulatory factor 3 telomerized human fibroblast cells assessed as reduction in virus titer in cell supernatant by measuring inhibition of plaque formation using Vero cells […] followed by infected with virus incubated for 24 hrs and measured following infection of supernatants with Vero cells for 48 hrs by plaque based …; type: functional; details: time 72 hrs
[17] = system: Chikungunya virus; assay: Antiviral activity against wild type CHIKV-117 infected in […] cells assessed as viral infectivity in Vero cells at 10 uM measured up to 24 hrs of post infection by supernatant was quantified by plaque assay; type: functional; details: time hrs <=24
[18] = system: Chikungunya virus; assay: Antiviral activity against resistance mutation induced CHIKV-117 infected in […] cells assessed as viral infectivity in Vero cells at 10 uM measured up to 24 hrs of post infection by supernatant was quantified by plaque assay; type: functional, organism-based; details: time hrs <=24
[19] = system: Chikungunya virus; assay: Antiviral activity against CHIKV-nLuc RNA transfected NHDF cells assessed as decrease in CHIKV RNA at 10 uM pretreated 1 hr before transfection measured after 12 hrs by Nano-Glo luciferase assay; type: functional, organism-based; details: time 13.0 hrs
[20] = target: Dihydroorotate dehydrogenase (quinone), mitochondrial (Homo sapiens, UniProt Q02127)
Sequence of Dihydroorotate dehydrogenase (quinone), mitochondrial (Q02127 whole entry): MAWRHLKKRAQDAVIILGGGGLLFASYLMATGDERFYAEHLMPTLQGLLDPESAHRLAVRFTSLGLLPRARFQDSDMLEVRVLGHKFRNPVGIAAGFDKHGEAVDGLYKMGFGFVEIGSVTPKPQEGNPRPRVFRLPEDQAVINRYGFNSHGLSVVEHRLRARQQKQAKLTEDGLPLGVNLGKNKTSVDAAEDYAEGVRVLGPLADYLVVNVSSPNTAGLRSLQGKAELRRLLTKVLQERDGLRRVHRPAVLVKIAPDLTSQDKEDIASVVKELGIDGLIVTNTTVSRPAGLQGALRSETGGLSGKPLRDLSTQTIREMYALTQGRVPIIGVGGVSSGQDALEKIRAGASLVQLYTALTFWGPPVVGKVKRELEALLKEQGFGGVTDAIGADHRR

[21] = system: NHDF; assay: (§1) Cytotoxicity against human NHDF cells assessed as cell viability measured after 24 hrs by Cell Titer Glo luminescent assay; type: cell-based; details: nhdf, 24 h
[22] = system: Chikungunya virus; assay: Antiviral activity against CHIKV infected in mouse NIH3T3 cells assessed as reduction in virus titer in cell supernatant by measuring inhibition of plaque formation using Vero cells pretreated with NIH3T3 cells followed by infected with virus incubated for 24 hrs and measured following infection of supernatants with Vero cells for 48 hrs by plaque based methylene blue dye analysis; type: functional; details: dose 10 µM
[23] = system: Chikungunya virus; type: functional, organism-based; details: 181-25, NIH3T3, dose 10.0 µM
[24] = system: Chikungunya virus; assay: Antiviral activity against CHIKV 37997 infected in Asian tiger mosquito C6/36 cells assessed as reduction in virus titer in cell supernatant by measuring inhibition of plaque formation using Vero cells and measured following infection of supernatants with Vero cells for 48 hrs pi by serial dilution plaque based methylene blue dye analysis; type: functional; details: Chikungunya virus, 37997, C6
[25] = Toxicity in CHIKV infected in C57BL/6 mouse right foot assessed as body weight change at 80 mg/kg, po pretreated 2 hrs before infection followed treated twice a day for 3 days and measured 12 hr post infection of last dose; type: organism-based; details: in vivo, 86 h
[26] = system: Chikungunya virus; assay: Antiviral activity against CHIKV infected in C57BL/6 mouse right foot assessed as reduction in serum of contralateral ankles tissue at 80 mg/kg, po pretreated 2 hrs before infection followed treated twice a day for 3 days and measured 12 hr post infection of last dose by dilution plaque assay on Vero cells; type: functional, organism-based; details: time 86.0 hrs
[27] = system: Venezuelan equine encephalitis virus; assay: Antiviral activity against Venezuelan equine encephalitis virus TC83 infected in human […] cells assessed as reduction in virus titer in cell supernatant by measuring inhibition of plaque formation using Vero cells at 10 uM measured following infection of supernatants with Vero cells for 48 hrs pi by serial dilution plaque based methylene blue dye analysis; type: functional, NHDF
[28] = Metabolic stability in human liver microsomes assessed as half life in presence of NADPH incubated up to 45 mins by LC-MS/MS analysis; type: ADME, Microsome
[29] = Half life in C57BL/6 mouse at 40 mg/kg, sc; type: ADME, organism-based; details: in vivo
[30] = Bioavailability in C57BL/6 mouse at 40 mg/kg, ip; type: ADME, organism-based; details: in vivo
[31] = system: Chikungunya virus; assay: Antiviral activity against CHIKV infected in C57BL/6 mouse right foot assessed as reduction in spleen at 80 mg/kg, po pretreated 2 hrs before infection followed treated twice a day for 3 days and measured 12 hr post infection of last dose by dilution plaque assay on Vero cells; type: functional, organism-based; details: time 86.0 hrs
[32] = system: Chikungunya virus; assay: Antiviral activity against CHIKV infected in C57BL/6 mouse right foot assessed as reduction in serum of ipsilateral tissue at 80 mg/kg, po pretreated 2 hrs before infection followed treated twice a day for 3 days and measured 12 hr post infection of last dose by dilution plaque assay on Vero cells; type: functional, organism-based; details: time 86.0 hrs
[33] = system: Chikungunya virus; assay: Antiviral activity against CHIKV infected in C57BL/6 mouse right foot assessed as reduction in quadriceps tissue at 80 mg/kg, po pretreated 2 hrs before infection followed treated twice a day for 3 days and measured 12 hr post infection of last dose by dilution plaque assay on Vero cells; type: functional, organism-based; details: time 86.0 hrs
[34] = Cytotoxicity against HEK293 cells at 10 uM; type: cell-based; details: human
[35] = Bioavailability in C57BL/6 mouse at 40 mg/kg, sc; type: ADME, organism-based; details: in vivo
[36] = AUC in C57BL/6 mouse at 40 mg/kg, ip; type: ADME, organism-based; design: dose 40 mg/kg; details: in vivo
[37] = Oral bioavailability in C57BL/6 mouse at 40 mg/kg; type: ADME, organism-based; details: in vivo
[38] = system: Una virus; assay: Antiviral activity against Una virus MAC150 infected in Asian tiger mosquito C6/36 cells assessed as reduction in virus titer in cell supernatant by measuring inhibition of plaque formation using Vero cells and measured following infection of supernatants with Vero cells for 48 hrs pi by serial dilution plaque based methylene blue dye analysis; type: functional
[39] = AUC in C57BL/6 mouse at 1 mg/kg, iv; type: ADME, organism-based; design: dose 1 mg/kg; details: in vivo
[40] = system: dengue virus type 2; assay: Antiviral activity against DENV2 infected in HEK293 cells assessed as reduction in virus titer in cell supernatant by measuring inhibition of plaque formation using Vero cells at 10 uM measured following infection of supernatants with Vero cells for 48 hrs pi by serial dilution plaque based methylene blue dye analysis; type: functional
[41] = Half life in C57BL/6 mouse at 40 mg/kg, po; type: ADME, organism-based; details: in vivo
[42] = Octanol-aqueous buffer distribution coefficient, log D of the compound by LC-MS analysis; type: physicochemical
[43] = as §1; type: cell-based; details: NHDF cells
[44] = Half life in C57BL/6 mouse at 1 mg/kg, iv; type: ADME, organism-based; details: in vivo
[45] = AUC in C57BL/6 mouse at 40 mg/kg, po; type: ADME, organism-based; design: dose 40 mg/kg; details: in vivo
[46] = Half life in C57BL/6 mouse at 40 mg/kg, ip; type: ADME, organism-based; details: in vivo
[47] = system: West Nile virus; assay: Antiviral activity against West nile virus infected in HEK293 cells assessed as reduction in virus titer in cell supernatant by measuring inhibition of plaque formation using Vero cells at 10 uM measured following infection of supernatants with Vero cells for 48 hrs pi by serial dilution plaque based methylene blue dye analysis; type: functional
[48] = Aqueous solubility of the compound; type: physicochemical; details: aqueous; read-out: solubility
[49] = Cmax in C57BL/6 mouse at 40 mg/kg, sc; type: ADME, organism-based; design: route subcutaneous, dose 40 mg/kg; details: in vivo
[50] = Cmax in C57BL/6 mouse at 40 mg/kg, po; type: ADME, organism-based; design: route oral, dose 40 mg/kg; details: in vivo
[51] = Cmax in C57BL/6 mouse at 40 mg/kg, ip; type: ADME, organism-based; design: route intraperitoneal, dose 40 mg/kg; details: in vivo
[52] = system: Chikungunya virus; assay: Antiviral activity against CHIKV infected in C57BL/6 mouse right foot assessed as reduction in site of infection at 80 mg/kg, po pretreated 2 hrs before infection followed treated twice a day for 3 days and measured 12 hr post infection of last dose by dilution plaque assay on Vero cells; type: functional, organism-based; details: time 86.0 hrs
[53] = AUC in C57BL/6 mouse at 40 mg/kg, sc; type: ADME, organism-based; design: dose 40 mg/kg; details: in vivo

COc1cc2c(cc1NC(=O)c1ccc(C(C)(C)C)cc1)CCCC2
Activity [1]: inactive
Activity [2]: Active
EC90 [3]: 2100 nM
EC90 [4]: 5100 nM
EC90 [5]: 1000 nM
EC90 [6]: 1450 nM
Activity [7]: Active
inhibition [8]: Active
log(activity) [9]: 2.5
EC90 [10]: 400 nM
Activity [11]: Active
EC90 [12]: 300 nM
inhibition [13]: Active
EC90 [14]: 320 nM
EC50 [15]: 1450 nM
EC90 [16]: 1030 nM
log(activity) [17]: 1.5
Activity [18]: Active
inhibition [19]: Active
IC50 [20]: 5000 nM
CC50 [21]: 169000 nM
EC90 [22]: 3160 nM
Activity [23]: Active
EC90 [24]: 3390 nM

COc1cc2c(cc1C(=O)Nc1ccc(C(C)(C)C#N)cc1)CCCCC2
Activity [1]: inactive
Activity [25]: Non-Toxic
Activity [26]: inactive
EC90 [3]: 2100 nM
log(activity) [27]: 3.1
half-life [28]: 132 h
EC90 [4]: 2300 nM
EC90 [5]: 1100 nM
EC90 [6]: 980 nM
half-life [29]: 18.6 h
bioavailability [30]: 43%
Activity [31]: Active
Activity [7]: Active
Activity [32]: inactive
Activity [33]: Active
log(activity) [9]: 4.5
EC90 [12]: 890 nM
EC90 [14]: 850 nM
EC50 [15]: 270 nM
CC50 [34]: > 30000 nM
bioavailability [35]: 4%
AUC [36]: 8570 ng·h/mL
bioavailability [37]: 41%
EC90 [38]: 2500 nM
AUC [39]: 497 ng·h/mL
log(activity) [40]: 2
half-life [41]: 9.9 h
IC50 [20]: 310 nM
logD [42]: > 4.4
CC50 at 24 h [43]: > 30000 nM
half-life [44]: 2.02 h
AUC [45]: 7950 ng·h/mL
half-life [46]: 18.5 h
log(activity) [47]: 3.4
solubility [48]: < 1 µM
Cmax [49]: 90 ng/mL
Cmax [50]: 642 ng/mL
EC90 [24]: 1500 nM
Cmax [51]: 858 ng/mL
Activity [52]: inactive
AUC [53]: 744 ng·h/mL

From ChEMBL document CHEMBL4834424, “Targeting Chikungunya Virus Replication by Benzoannulene Inhibitors” (J Med Chem, 2021)
